In patent publication US6969718B2, “17-β hydroxysteroid dehydrogenase type 3 inhibitors for the treatment of androgen dependent diseases” (Schering Corporation, priority 2001, dated 2005) one finds melting point data, which are given here for twelve compounds.

One may read the melting point as the temperature of the solid-liquid transition.

`CC(C)[C@H]1CN(C(C)c2ccc(Cl)cc2)CCN1C(=O)CC1CCN(C(N)=O)CC1` (stereo partly drawn) [Example 101] gave a melting point of 76 to 82 °C.

The compound `CC(=O)N1CCC(CC(=O)N2CCN(Cc3ccc(Cl)c(Cl)c3)C[C@@H]2C(C)(C)C)CC1` [Example 104] showed a melting point of 49 to 53 °C.

Compound `CC(=O)N1CCC(CC(=O)N2CCN(Cc3ccccc3-c3ccc(Cl)c(Cl)c3)C[C@@H]2C(C)(C)C)CC1` [Example 106] showed a melting point of 62.1 to 63.6 °C.

In turn, `CC(=O)N1CCC(CC(=O)N2CCN(Cc3ccc(-c4ccc(Cl)c(Cl)c4)cn3)C[C@@H]2C(C)(C)C)CC1` [Example 107] yielded a melting point of 145.7 to 147 °C.

Consider `CC(=O)N1CCC(CC(=O)N2CCN(C(CC3CC3)c3ccc(Cl)c(Cl)c3)C[C@@H]2C(C)(C)C)CC1` (stereo partly drawn) [Example 109], for which the melting point is 61 to 63 °C.

`CC(=O)N1CCC(CC(=O)N2CCN(C(CC3CC3)c3ccc(Cl)c(Cl)c3)C[C@@H]2C(C)(C)C)CC1` (stereo partly drawn) [Example 110]: the melting point was in the range of 61 to 65 °C.

Compound `CC(=O)N1CCC(CC(=O)N2CCN(C(CCC(F)(F)F)c3ccc(C(F)(F)F)cc3)C[C@@H]2C(C)(C)C)CC1` (stereo partly drawn) [Example 111] displayed a melting point of 61 to 63 °C.

Compound `CC(C)(C)[C@H]1CN(Cc2ccc(Cl)c(Cl)c2)CCN1C(=O)CC1CCN(C(N)=O)CC1` [Example 113] gave a melting point of 80 to 85 °C.

`CC(C)(C)[C@H]1CN(Cc2ccccc2-c2ccc(Cl)c(Cl)c2)CCN1C(=O)CC1CCN(C(N)=O)CC1` [Example 114] came in with a melting point of 98.8 to 102.4 °C.

As for `CC(C)(C)[C@H]1CN(Cc2ccc(-c3ccc(Cl)c(Cl)c3)cn2)CCN1C(=O)CC1CCN(C(N)=O)CC1` [Example 115], the melting point lay within 95.2 to 98 °C.

Turning to `CC(C)(C)[C@H]1CN(C(CC2CC2)c2ccc(Cl)c(Cl)c2)CCN1C(=O)CC1CCN(C(N)=O)CC1` (stereo partly drawn) [Example 116], the melting point was in the range of 91 to 94 °C.

Regarding `CC(C)(C)[C@H]1CN(C(CCC(F)(F)F)c2ccc(C(F)(F)F)cc2)CCN1C(=O)CC1CCN(C(N)=O)CC1` (stereo partly drawn) [Example 117], the melting point fell in the range of 76 to 80 °C.
